For three compounds, IC50 and MIC results are on record in patent US6818654B2, “Antibacterial compounds” (Abbott Laboratories, priority 2002, dated 2004).

Converted amounts (≈) assume the structure as drawn.

Assay [1] addresses bacterial protein synthesis. The assay can be described thus: Translation assay, firefly luciferase reporter system with S30 Streptococcus pneumoniae extract. The assay is classed as biochemical. Particulars: S30 extract from quinoline-succeptable Streptococcus pneumoniae ATCC 46919; luciferase mRNA; read-out: IC50, concentration causing 50% inhibition of bacterial protein synthesis. The procedure: Bacterial protein synthesis inhibitory activity of the compounds and the aformentioned commercially-available antibacterials was determined by translation assays performed using the firefly luciferase reporter system described by Murray et al., (2001), “Staphylococcus aureus Cell Extract Transcription-Translation Assay: Firefly Luciferase Reporter System for Evaluating Protein Translation Inhibitors,” Antimicrob. Agents Chemother. 45(6): 1900-1904, replacing the Staphylococcus aureus S30 extract described therein with S30 Streptococcus pneumoniae extract from quinoline-succeptable Streptococcus pneumoniae ATCC 46919, and replacing plasmid coding for the luciferase gene with mRNA (encoding produced by in vitro transcription from the plasmid pAS10rbs3) which encoded the luciferase gene with an upstream Streptococcus pneumoniae promoter and Shine-Dalgarno site.
(In general: A reporter such as luciferase makes a cellular process visible.)

In assay [2] the test system is Quinoline-Resistant Streptococcus pneumoniae 7257. The assay can be described thus: MIC, agar dilution, quinoline-resistant strain (code BB). The format is cell-based. As to conditions: 35-37° C., 20-24 hours.
The test system of assay [3] is Quinoline-Succeptable Streptococcus pneumoniae ATCC 6303. Description: MIC, agar dilution, quinoline-susceptible strain (code AA). The format is cell-based. As to conditions: ATCC6303, 35-37° C., 20-24 hours. The text has this:
Antibacterial activity of the compounds […] Committee for Clinical Laboratory Standards (1997), “Methods for dilution antimicrobial susceptibility tests for bacteria that grow aerobically,” approved standard M7-A4 (Wayne, Pa., USA). All strains tested were from the Abbott Laboratories culture collection and were either clinical isolates or reference strains obtained from the American Type Culture Collection (Manassas, Va., USA).
On the technique in general: In agar dilution, organisms are placed on agar that contains the substance at set levels.

The term MIC denotes the lowest concentration that inhibits growth of the organism. A higher MIC goes with a less susceptible organism. `CC(=O)NC[C@H]1CN(c2ccc(N3CCOCC3)c(F)c2)C(=O)O1` [Linezolid]: in assay [1], the IC50 is about 3 µM. The results for the minimum inhibitory concentration (MIC) in assay [2] and in assay [3] were 0.5 µg/mL (≈ 1.48 µM) and 2 µg/mL (≈ 5.93 µM), respectively.

On to `N[C@@H]1[C@H]2CN(c3nc4c(cc3F)c(=O)c(C(=O)O)cn4-c3ccc(F)cc3F)C[C@@H]12` [Trovafloxacin], for which the MIC in assay [2] amounted to 4 µg/mL (≈ 9.61 µM); in assay [3], 0.06 µg/mL (≈ 0.144 µM).

As to `CCn1cc(C(=O)O)c(=O)c2cc(F)c(N3CCNCC3)cc21` [Norfloxacin], the MIC worked out at 32 µg/mL (≈ 100 µM) in assay [2] and 1 µg/mL (≈ 3.13 µM) in assay [3].
